System: patients with dry eye disease
Experiment: Phase 2b: overall efficacy on signs and symptoms
Format: in vivo, human
Method: In a Phase 2b clinical trial, the efficacy of Reproxalap Ophthalmic Solutions (0.25% and 0.1%) were evaluated in patients with dry eye disease (see the details in Example 1). […] The efficacy profile of Reproxalap Ophthalmic Solutions was evident as early as two weeks following treatment initiation. […] Efficacy Analysis • Evaluated baseline to weeks 2, 4, 8 and 12 change scores with reproxalap on DED sign and symptom endpoints (both pre-CAE and CAE endpoints). Each endpoint was analyzed at a two-sided alpha level of 0.05, and the overall type I error was not controlled for in this investigative study. • Evaluated effect size of baseline to weeks 2, 4, 8 and 12 change scores of reproxalap vs vehicle on DED sign and symptom endpoints (both pre-CAE and CAE endpoints) to confirm the endpoint selection for primary outcome parameters and sample size for Phase 3 studies with reproxalap. • Sub-group analyses on effect size of baseline to weeks 2, 4, 8 and 12 change scores of reproxalap vs vehicle on DED sign and symptom endpoints (both pre-CAE and CAE endpoints) [Subgroups were prospectively detailed in the Statistical Analysis Plan (SAP)].

CC(C)(O)c1nc2ccc(Cl)cc2cc1N [Reproxalap, reproxalap]
Dose response between 0.1% and 0.25% dose strengths: dose response

Source: patent publication US20220133629A1, “FORMULATIONS FOR TREATMENT OF DRY EYE DISEASE” (Aldeyra Therapeutics, Inc., priority 2018, published 2022)
